# Reference: patent US20220289685A1, “ANTIMALARIAL HEXAHYDROPYRIMIDINE ANALOGUES” (UCB BIOPHARMA SRL, priority 2019, published 2022)
# pIC50: −log10 of the molar value. Where a name gives a salt, the structure may show the parent alone.
# Tested on: Plasmodium falciparum 3D7 strain
# Assay: P. falciparum 3D7 asexual blood stage assay (SYBR green readout)
# Assay type: cell-based
# Details: Plasmodium falciparum, 3D7, Erythrocyte, 72 h
# Procedure: Asexual Blood Stage Assay
# The assay used to measure the effect of test compounds on a bloodstream stage of Plasmodium falciparum: 3D7 strain employs SYBR green as the readout. This is a dye that binds to double stranded deoxyribonucleic acid (DNA) with a resulting increase in fluorescence, allowing detection of P. falciparum DNA in infected erythrocytes, and thereby providing a measure of parasite growth and propagation.
# P. falciparum Culture Maintenance
# Erythrocytes (A+ blood) were prepared for both parasite culture and assay by washing 4 times with incomplete media (15.9 g RPMI 1640 (25 mM HEPES, L-glutamine), 1 g NaHCO3, 2 g glucose, 400 μL gentacin (500 mg/mL), 2 mL hypoxanthine solution (13.6 g/L in 0.1M NaOH pH 7.3) in 1 litre of media). The cells were centrifuged at 1800 g for 5 minutes, before decanting the supernatant and re-suspending in fresh incomplete media. On the final wash, the cells were re-suspended in complete media (incomplete media with 5 g/L AlbumaxII), and centrifuged at 1800 g for 3 minutes. This cell sediment was treated as 100% haematocrit.
# P. falciparum 3D7 was cultured in erythrocytes at 5% haematocrit in complete media at 37° C. (1% O2, 3% CO2, balance N2). Cultures were split on a weekly basis to achieve a 1% parasitaemia in erythrocites at 5% haematocrit in fresh media. Culture media is replaced by fresh media every other day (2 times during the week).
# On day 1, test compounds were added to assay plates using Echo dispensing technology ([…] and 20 points titration). 50 nL of each compound dilution was added to 50 μL of culture (5% haematocrit, 0.5% parasitaemia) and incubated for 72 h at 37° C. (1% O2, 3% CO2, balance N2). Final concentrations of test compounds ranged from 50,000 nM to 15 nM, in […].
# On day 4, 10 μL SYBR green (Invitrogen S7563 supplied as 10,000× concentrate in DMSO) pre-diluted to 3× concentrate with Lysis buffer (20 mM Tris pH 7.9, 5% EDTA, 0.16% w/v, 1.6% TX100 v/v) was added to the cultures and incubated in the dark, overnight, at room temperature.
# On day 5, fluorescent signal was measured using a BioTek plate reader (excitation 485 nm, emission 528 nm). All data were processed using IDBS ActivityBase. Raw data were converted into percent inhibition through linear regression by setting the high inhibition control (mefloquine) as 100% and the no inhibition control (DMSO) as 0%. Quality control criteria for passing plates were as follows: Z′>0.5, S:B>3, 30% CV(no inhibition control)<15. The formula used to calculate Z′ is: […]
# All EC50 curve fitting was undertaken using the following bi-phasic two site dose response using XLfit model 300 (IDBS):
# where A=100 minus the top of the upper curve 1 and the bottom of lower curve; B=Hill slope; log(C)=IC50 concentration at lower site; log(D)=IC50 concentration at upper site; x=inhibitor concentration; and y=% inhibition.
row,SMILES,pIC50
1,"C[C@@H]1C[C@H](N2C(=N)N[C@](C)(c3cccc(NC(=O)c4cccc(C(F)(F)F)c4)c3Cl)CC2=O)CCO1 (relative stereo) [Example 41, N-(2-Chloro-3-{(4S)-2-imino-4-methyl-1-[(2R*,4R*)-2-methyl-tetrahydropyran-4-yl]-6-oxo-hexahydropyrimidin-4-yl}phenyl)-3-(trifluoromethyl)benzamide trifluoroacetic acid salt]",7.82
2,"C[C@@H]1C[C@H](N2C(=N)N[C@](C)(c3cccc(NC(=O)c4cc(F)cc(F)c4)c3Cl)CC2=O)CCO1 (relative stereo) [Example 42, N-(2-Chloro-3-{(4S)-2-imino-4-methyl-1-[(2R*,4R*)-2-methyl-tetrahydropyran-4-yl]-6-oxo-hexahydropyrimidin-4-yl]phenyl)-3,5-difluorobenzamide trifluoroacetic acid salt]",7.38
3,"C[C@@H]1C[C@H](N2C(=N)N[C@](C)(c3cccc(NC(=O)c4cnc5ccncc5c4)c3Cl)CC2=O)CCO1 (relative stereo) [Example 43, N-(2-Chloro-3-{(4S)-2-imino-4-methyl-1-[(2R*,4R*)-2-methyl-tetrahydropyran-4-yl]-6-oxo-hexahydropyrimidin-4-yl]phenyl)-1,6-naphthyridine-3-carboxamide trifluoroacetic acid salt]",7.04
4,"C[C@@H]1C[C@H](N2C(=N)N[C@](C)(c3cccc(NC(=O)c4cc5cccc(F)c5o4)c3Cl)CC2=O)CCO1 (relative stereo) [Example 44, N-(2-Chloro-3-{(4S)-2-imino-4-methyl-1-[(2R*,4R*)-2-methyl-tetrahydropyran-4-yl]-6-oxo-hexahydropyrimidin-4-yl]phenyl)-7-fluorobenzofuran-2-carboxamide trifluoroacetic acid salt]",7.70
5,"COc1ccncc1C(=O)Nc1cccc([C@]2(C)CC(=O)N([C@@H]3CCO[C@H](C)C3)C(=N)N2)c1Cl (relative stereo) [Example 45, N-(2-Chloro-3-{(4S)-2-imino-4-methyl-1-[(2R*,4R*)-2-methyl-tetrahydropyran-4-yl]-6-oxo-hexahydropyrimidin-4-yl]phenyl)-4-methoxypyridine-3-carboxamide trifluoroacetic acid salt]",6.81
6,"C[C@@H]1C[C@H](N2C(=N)N[C@](C)(c3cccc(NC(=O)c4cc5ccccc5nn4)c3Cl)CC2=O)CCO1 (relative stereo) [Example 46, N-(2-Chloro-3-{(4S)-2-imino-4-methyl-1-[(2R*,4R*)-2-methyl-tetrahydropyran-4-yl]-6-oxo-hexahydropyrimidin-4-yl]phenyl)-cinnoline-3-carboxamide trifluoroacetic acid salt]",7.39
7,"C[C@@H]1C[C@H](N2C(=N)N[C@](C)(c3cccc(NC(=O)c4ccc(OC(F)(F)F)cn4)c3Cl)CC2=O)CCO1 (relative stereo) [Example 47, N-(2-Chloro-3-{(4S)-2-imino-4-methyl-1-[(2R*,4R*)-2-methyl-tetrahydropyran-4-yl]-6-oxo-hexahydropyrimidin-4-yl]phenyl)-5-(trifluoromethoxy)pyridine-2-carboxamide trifluoroacetic acid salt]",6.62
8,"C[C@@H]1C[C@H](N2C(=N)N[C@](C)(c3cccc(NC(=O)c4ncccc4C(F)(F)F)c3Cl)CC2=O)CCO1 (relative stereo) [Example 49, N-(2-Chloro-3-{(4S)-2-imino-4-methyl-1-[(2R*,4R*)-2-methyl-tetrahydropyran-4-yl]-6-oxo-hexahydropyrimidin-4-yl]phenyl)-3-(trifluoromethyl)pyridine-2-carboxamide trifluoroacetic acid salt]",7.77
9,"COc1cccnc1C(=O)Nc1cccc([C@]2(C)CC(=O)N([C@@H]3CCO[C@H](C)C3)C(=N)N2)c1Cl (relative stereo) [Example 50, N-(2-Chloro-3-{(4S)-2-imino-4-methyl-1-[(2R*,4R*)-2-methyl-tetrahydropyran-4-yl]-6-oxo-hexahydropyrimidin-4-yl}phenyl)-3-methoxypyridine-2-carboxamide trifluoroacetic acid salt]",7.25
10,"C[C@@H]1C[C@H](N2C(=N)N[C@](C)(c3cccc(NC(=O)c4ccnn4C)c3Cl)CC2=O)CCO1 (relative stereo) [Example 51, N-(2-Chloro-3-{(4S)-2-imino-4-methyl-1-[(2R*,4R*)-2-methyl-tetrahydropyran-4-yl]-6-oxo-hexahydropyrimidin-4-yl}phenyl)-2-methylpyrazole-3-carboxamide trifluoroacetic acid salt]",7.23
11,"C[C@@H]1C[C@H](N2C(=N)N[C@](C)(c3cccc(NC(=O)c4cnc5cccnc5c4)c3Cl)CC2=O)CCO1 (relative stereo) [Example 52, N-(2-Chloro-3-{(4S)-2-imino-4-methyl-1-[(2R*,4R*)-2-methyl-tetrahydropyran-4-yl]-6-oxo-hexahydropyrimidin-4-yl}phenyl)-1,5-naphthyridine-3-carboxamide trifluoroacetic acid salt]",6.94
12,"C[C@@H]1C[C@H](N2C(=N)N[C@](C)(c3cccc(NC(=O)c4ccc(C5CC5)nc4)c3Cl)CC2=O)CCO1 (relative stereo) [Example 53, N-(2-Chloro-3-{(4S)-2-imino-4-methyl-1-[(2R*,4R*)-2-methyl-tetrahydropyran-4-yl]-6-oxo-hexahydropyrimidin-4-yl}phenyl)-6-cyclopropylpyridine-3-carboxamide hydrochloride]",6.20
13,"Cc1ccc(C(=O)Nc2cccc([C@]3(C)CC(=O)N([C@@H]4CCO[C@H](C)C4)C(=N)N3)c2Cl)nn1 (relative stereo) [Example 54, N-(2-Chloro-3-{(4S)-2-imino-4-methyl-1-[(2R*,4R*)-2-methyl-tetrahydropyran-4-yl]-6-oxo-hexahydropyrimidin-4-yl}phenyl)-6-methylpyridazine-3-carboxamide hydrochloride]",6.77
14,"C[C@@H]1C[C@H](N2C(=N)N[C@](C)(c3cccc(NC(=O)c4cc(C(F)(F)F)cnn4)c3Cl)CC2=O)CCO1 (relative stereo) [Example 55, N-(2-Chloro-3-{(4S)-2-imino-4-methyl-1-[(2R*,4R*)-2-methyl-tetrahydropyran-4-yl]-6-oxo-hexahydropyrimidin-4-yl}phenyl)-5-(trifluoromethyl)pyridazine-3-carboxamide hydrochloride]",7.28
15,"C[C@@H]1C[C@H](N2C(=N)N[C@](C)(c3cccc(NC(=O)c4cnccc4C(F)(F)F)c3Cl)CC2=O)CCO1 (relative stereo) [Example 56, N-(2-Chloro-3-{(4S)-2-imino-4-methyl-1-[(2R*,4R*)-2-methyl-tetrahydropyran-4-yl]-6-oxo-hexahydropyrimidin-4-yl}phenyl)-4-(trifluoromethyl)pyridine-3-carboxamide hydrochloride]",7.68
16,"C[C@@H]1C[C@H](N2C(=N)N[C@](C)(c3cccc(NC(=O)c4cccnc4C4CC4)c3Cl)CC2=O)CCO1 (relative stereo) [Example 57, N-(2-Chloro-3-{(4S)-2-imino-4-methyl-1-[(2R*,4R*)-2-methyl-tetrahydropyran-4-yl]-6-oxo-hexahydropyrimidin-4-yl]phenyl)-2-cyclopropylpyridine-3-carboxamide hydrochloride]",6.32
17,"C[C@@H]1C[C@H](N2C(=N)N[C@](C)(c3cccc(NC(=O)c4ccc(OCC(F)(F)F)nc4)c3Cl)CC2=O)CCO1 (relative stereo) [Example 58, N-(2-Chloro-3-{(4S)-2-imino-4-methyl-1-[(2R*,4R*)-2-methyl-tetrahydropyran-4-yl]-6-oxo-hexahydropyrimidin-4-yl]phenyl)-6-(2,2,2-trifluoroethoxy)pyridine-3-carboxamide hydrochloride]",6.36

# Same assay, conditions: Plasmodium falciparum, Erythrocyte; P. falciparum 3D7 in human erythrocytes, 72 h incubation, SYBR green fluorescence; read-out: IC50
row,SMILES,pIC50
1,"C[C@@H]1C[C@H](N2C(=N)N[C@](C)(c3cccc(NC(=O)c4nccn5ccnc45)c3Cl)CC2=O)CCO1 (relative stereo) [Example 48, N-(2-Chloro-3-{(4S)-2-imino-4-methyl-1-[(2R*,4R*)-2-methyl-tetrahydropyran-4-yl]-6-oxo-hexahydropyrimidin-4-yl}phenyl)-imidazo[1,2-alpyrazine-8-carboxamidetrifluoroacetic acid salt]",7.26
